Laboratory results taken from patent US8207188B2, “Treatment of diseases modulated by a H4 receptor agonist” (priority 2006, dated 2012).
Values joined by “and” are separate entries in the source; they are usually repeats but may differ in a detail not shown here. Equal values may be shown once.

Tests used:
[1] = Spirometry parameter FEV1 in COPD patients; format: in vivo, human; set-up: T0 (initial visit) FEV1: unit not given here
Procedure: At the initial visit to the physician (T0), the patients were examined and the spirometry parameter FEV1 was recorded. Tritoqualine 200 mg/day were added to the patient's existing drug therapy. […] During each visit the patient's overall health and the FEV1 parameter was assessed by spirometry. […]

[2] = target: T1, recombinant human HDC (Homo sapiens, UniProt P19113); experiment: Human-HDC activity determination (14CO2 from L-[U-14C]histidine); format: biochemical; conditions: 10 μM final
T1 construct: The DNA encoding for residues 1-512 of human HDC; GST (fusion partner of the pGEX-6P-1 vector) (N, cleaved yes); made in house; host or cells: Escherichia coli BL21(DE3)pLysS
T1 sequence (P19113 1-512): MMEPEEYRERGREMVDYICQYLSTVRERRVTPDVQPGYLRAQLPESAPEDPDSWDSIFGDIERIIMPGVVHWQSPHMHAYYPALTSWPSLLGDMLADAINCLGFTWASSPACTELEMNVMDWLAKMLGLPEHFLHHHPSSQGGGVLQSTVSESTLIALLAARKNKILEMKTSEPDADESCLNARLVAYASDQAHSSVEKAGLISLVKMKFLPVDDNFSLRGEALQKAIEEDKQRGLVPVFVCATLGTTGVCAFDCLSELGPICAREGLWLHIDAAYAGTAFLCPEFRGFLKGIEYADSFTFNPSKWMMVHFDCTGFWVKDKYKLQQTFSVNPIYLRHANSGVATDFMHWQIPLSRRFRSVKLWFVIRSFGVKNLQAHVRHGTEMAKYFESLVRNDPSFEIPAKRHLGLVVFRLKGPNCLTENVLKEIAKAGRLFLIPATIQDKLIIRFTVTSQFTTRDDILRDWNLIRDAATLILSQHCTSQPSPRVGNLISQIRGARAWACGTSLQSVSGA
From the text: The DNA encoding for residues 1-512 of human HDC was subcloned in the pGEX-6P-1 vector (GE-Healthcare). The recombinant plasmid transformed into the Escherichia coli BL21(DE3)pLysS strain. Transformed cultures were induced to express the HDC 1/512, which was purified by affinity chromatography using Glutathione sepharose (GE-Healthcare). 1/512 HDC was released from the fusion protein bound to the affinity chromatography support by digestion with the Pre-Scission™ protease (GE-Healthcare). The final preparations were dissolved in 50 mM potassium phosphate, 0.1 mM PLP, pH 7.0. Purity of the HDC 1/512 construct was checked by Coomassie blue staining and Western blotting, and was higher than 95% in the final preparations.
HDC activity was assayed, as described in Engel at al. (1996) Biochem J. 320: 365-368, by measuring the production of ^14CO2 from L-[U-^14C]histidine (GE-Healthcare) in a mixture containing 0.2 mM dithiothreitol, 10 μM PLP, 10 mg/ml poly(ethylene glycol)-300, 100 mM potassium phosphate, pH 6.8, and purified protein in a total volume of 100 μL. When recombinant HDC was used, the concentration of L[U-^14C]histidine was 13.3 μM (with ⅓ isotopic dilution). The released ^14CO2 was measured as previously described for HDC activity determinations (Urdiales et al. (1992) FEBS Lett. 305, 260-264).
10 μM concentration of each isomer, A and B (A corresponds to the isolated pure isomer eluting at 5.9 minutes, B corresponds to the isolated pure isomer eluting at 7.1 minutes of the chromatogram shown in FIG. 4 (bottom)) and their corresponding racemic mixture (starting material prior to separating the individual isomers, indicated as A+B) along with 4 μg of recombinant human HDC were used to asses the inhibitory effect of each isomer and the mixture on the enzymatic conversion of histidine to histamine. Results are presented as means of duplicates samples.

[3] = test system: human TF1 cells that express H4R; experiment: TF1 cell proliferation assay (GM-CSF promoted); format: cell-based
Procedure: Tritoqualine was tested on a cell proliferation assay using human TF1 cells that express H4R.
TF1 cell proliferation is promoted using granulocyte/macrophage colony-stimulating factor (GM-CSF). In this cell proliferation model H4R agonists inhibit cell proliferation. Clobenpropit (CB), a known H4R agonist at a dose of 10^−5M (10 μM) was used as a known cell proliferation inhibition control. […] Each experiment used 100,000 TF1 cells/mL incubated for three days with GM-CSF (10 ng/mL). After addition of TRQ in the range of 10^−5M (10 μM) to 10^−7 M (0.1 μM), and incubation for 3 days, cell proliferation was assessed and compared to that of 10 μM CB.

[4] = Reintroduction of causal food allergen in food allergy patients; format: in vivo, human; conditions: baseline patients treated with one drug alone
From the text: Allergens tested came from either […], or ALLERBIO.
The direct test with the Nutella® was strongly positive for allergy. This patient was hospitalized in two occasions for the same dramatic allergic reaction to Nutella® spread. Furthermore, the patient presented allergies to pneumoallergens.
Continuation of the above treatment for over 8 months afforded reversal of allergic and digestive symptoms due to food allergy.
The patient under study had survived two cases of anaphylactic shock due to ingestion of shrimps. […] Later the patient was able to ingest five shrimps without any local signs and no global reaction.
Baseline patients had signs of food allergies and the food allergy symptoms were not adequately managed with an H1 antagonist and cromoglycate. A group of 15 patients presenting signs of food allergies is tested with allergens such as the following: peanut, milk, tomato, potato, flour of wheat, soybean, fish, and shrimp. Allergens tested came from either […], or ALLERBIO.
All patients had history of hospitalization and reactions such as Quincke's edema and asthma crisis. Most of the causal allergens were peanut (six patients), egg (four patients) and soybean (five patients) of them (with other several positive food allergens at different degrees of reaction). […]

inhibition at 10 µM [2]: 17.5%
DPM ([2]; 4 μg recombinant human HDC, means of duplicates, control 12340): 10176 DPM
Activity ([2]; control 0.35): 0.29 µmol/h
Specific activity ([2]; control 87.00): 71.74 μmole/h · mg prot
remaining activity at 10 µM ([2]; read-out: % of control): 82.5%
Compound: CCOc1c(N)c2c(c(OCC)c1OCC)C(C1c3c(cc4c(c3OC)OCO4)CCN1C)OC2=O (racemic) [Tritoqualine, 7-Amino-4,5,6-triethoxy-3-(5,6,7,8-tetrahydro-4-methoxy-6-methyl-1,3-dioxolo[4,5-g]isoquinolin-5-yl) phthalide]
T0 (initial visit) FEV1 ([1]; Example 12, 13 COPD patients, one line per patient, baseline before Tritoqualine): 1.00 (2×) and 2.39 and 1.86 (2×) and 1.60 and 1.53 and 1.64 and 1.32 and 0.82 and 0.58 and 2.28 and 1.30
improvement of FEV1 from visit T0 to T1 (paired t-test) ([1]; Example 12, 13 patients, P=0.0012): statistically significant improvement
Mean, Visit T1 ([1]; Example 12, N 13, 6-8 weeks of Tritoqualine 200 mg/day, FEV1 relative to expected normal value): 77.69
Mean, Visit T0 ([1]; Example 12, N 13, baseline, FEV1 relative to expected normal value): 65.3
FEV1 as percent of expected normal value ([1]; Example 12, per patient, 6-8 weeks of Tritoqualine 200 mg/day): 50.76% and 97.74% and 85.50% and 71.77% and 92.96% and 72.24% and 87.41% and 64.90% and 68.42% and 43.53% and 88.24% and 88.89% and 105.12%
FEV1 as percent of expected normal value ([1]; Example 12, per patient, baseline): 50.76% and 89.85% and 47.33% and 76.56% and 71.83% and 62.36% and 74.07% and 53.88% and 53.95% and 34.12% and 83.82% and 72.22% and 86.51%
T2 (6-8 weeks follow-up visit) FEV1 normalized ([1]; Example 12, per patient, Tritoqualine 200 mg/day added to existing therapy): 1.00 and 2.60 and 3.36 and 1.50 and 1.98 and 1.90 and 1.18 and 1.59 and 1.04 and 0.74 and 2.40 and 1.60 and 2.26
inhibition of cell proliferation ([3]; 0.1 μM): no inhibition of cell proliferation
inhibition at 10 µM ([3]; Homo sapiens, TF-1, 72 h, 10 μM, 3 days, three separate assays (n=3)): 49%
inhibition at 1 µM ([3]; Homo sapiens, TF-1, 1 μM): 18%
management of food allergy symptoms with the single drug [4]: did not yield satisfactory management
